According to US8623839B2, “Compositions and methods for stabilized polysaccharide formulations” (DePuy Mitek, LLC, priority 2011, dated 2014):

How the values were obtained:
[1] = system: rat medial meniscal tear (MMT) model of osteoarthritis; assay: Rat MMT model of osteoarthritis, histology; type: in vivo
From the text: In the rat medial mensical tear (MMT) model of osteoarthritis, transection of the medial meniscus results in joint deterioration and reduced weight bearing that mimics human osteoarthritis. A unilateral medial meniscal tear in 300-400 gram rats results in rapidly progressive cartilage degenerative changes characterized by chondrocyte and proteoglycan loss, fibrillation, osteophyte formation and chondrocyte cloning. Such changes are typically observed to be substantial by day 21 following the meniscal surgery. The extent of joint deterioration, as determined primarily by the extent of cartilage lesions formed, can be measured using a semi-quantitative histological scoring system.
To test the utility of trehalose as a vehicle for intra-articularly injected compounds, a solution of trehalose was formulated as a 5% solution in 3 mM glycine-HCl buffer, having a pH of approximately 3. The solution was tested in the rat MMT model. Transection of the medial collateral ligament just below attachment to the meniscus was performed on 15 male Lewis rats. The meniscus was cut at its narrowest point (away from the ossicles) taking care not to damage the tibial surface.
Beginning three days after MMT surgery, intra-articular injections of the trehalose solution were given weekly for five weeks, followed by euthanasia at week six.
Such measurements are taken using an ocular micrometer from stained histological cross sections of the medial compartment of the joint.
These measurements are taken using an ocular micrometer from stained histological cross sections of the medial compartment of the joint.
Cartilage preservation also correlated to the extent of collagen degeneration. […] The extent of collagen degeneration is defined as follows: […]
Severe damage (total or near total loss of collagen to tidemark, >90% thickness)
Marked damage (extends through 61-90% of the cartilage thickness)
Moderate damage (extends thru 31-60% of the cartilage thickness)
Mild damage (extends through 11-30% of the cartilage thickness)
Minimal damage (very superficial, affecting upper 10% only)
Cartilage degeneration scores were determined histologically by estimating the area of non-viable (significant chondrocyte and proteoglycan loss but collagen retention) and completely absent cartilage matrix, then estimating the percentage of that area compared to the area of the extrapolated original cartilage cross sectional area. A score of 1-5 is assigned, with a score of 1 indicating cartilage degeneration of 10% or less, and a score of 5 indicating complete cartilage degeneration. In FIG. 8, Zone 1 refers to the one third of the medial tibial plateau closest to the transected meniscus. […]

[2] = system: rabbit anterior cruciate ligament transection (ACLT) model of OA; assay: Rabbit ACLT model of osteoarthritis, modified Mankin scale; type: in vivo; details: 5% solution in 3 mM glycine-HCl buffer pH approx. 3, intra-articular weekly for seven weeks, euthanasia at 8 weeks; vs untreated animals (FIG. 9)
Method: The trehalose formulation (a 5% trehalose solution in 3 mM glycine-HCl buffer having a pH of approximately 3) described above was also tested in the rabbit anterior cruciate ligament transection (ACLT) model of OA. The ACLT surgery destabilized the rabbit knee to a greater extent than meniscal transection, resulting in not only substantial cartilage deterioration but also osteophyte formation. Studies investigating the development and regulation of osteophyte formation in the rabbit model of OA have detected plate-like formations as early as 4 weeks post-ACLT, and osteophyte growth in all compartments of the knee by 12 weeks post-ACLT.
Rabbits were anesthetized. The patellar fat pad was retracted, and the ACL was isolated. The anterior cruciate ligament was severed with a surgical blade. The fibrous capsule and subcutaneous tissue were closed prior to the skin being sutured. Beginning one week after surgery, intra-articular injections were given weekly for seven weeks, followed by euthanasia at 8 weeks. Cartilage degradation was determined histologically using a modified Mankin scale. Higher scores indicated more extensive cartilage degradation, with a maximum score of 18.
[…] decreased cartilage degeneration as a result of the intra-articular trehalose injections.

## OC[C@H]1O[C@H](O[C@H]2O[C@H](CO)[C@@H](O)[C@H](O)[C@H]2O)[C@H](O)[C@@H](O)[C@@H]1O [trehalose, α-D-glucopyranosyl α-D-glucopyranoside]
[1]; 5% solution in 3 mM glycine-HCl buffer pH approx. 3, intra-articular weekly for five weeks, euthanasia at week six, vs no treatment (FIG. 5)
  width of significant cartilage lesions (chondrocyte and proteoglycan loss through 50% or more of cartilage thickness): significant reduction
[1]; 5% solution, intra-articular weekly for five weeks, vs no treatment (FIG. 6)
  lesion Depth Ratio: significant improvement
[1]; 5% solution, intra-articular weekly for five weeks, vs no treatment (FIG. 7)
  width of cartilage lesions with marked or severe collagen depletion: significantly reduced
[1]; all three zones, 5% solution, intra-articular weekly for five weeks (FIG. 8)
  cartilage degeneration score of medial tibial plateau: statistically improved
[2]
  modified Mankin score: significant improvement
